Test results: ChEMBL document CHEMBL4017513, “Structure-Activity Relationships of Potent, Targeted Covalent Inhibitors That Abolish Both the Transamidation and GTP Binding Activities of Human Tissue Transglutaminase” (J Med Chem, 2017)

What was measured:
[1] = molecular target: T1, Coagulation factor XIII A chain (Homo sapiens) (UniProt P00488); assay: Inactivation of human F13a assessed as rate constant of enzyme inhibition using FRET- quenched A101 as substrate by fluorescence assay
T1 sequence (whole entry): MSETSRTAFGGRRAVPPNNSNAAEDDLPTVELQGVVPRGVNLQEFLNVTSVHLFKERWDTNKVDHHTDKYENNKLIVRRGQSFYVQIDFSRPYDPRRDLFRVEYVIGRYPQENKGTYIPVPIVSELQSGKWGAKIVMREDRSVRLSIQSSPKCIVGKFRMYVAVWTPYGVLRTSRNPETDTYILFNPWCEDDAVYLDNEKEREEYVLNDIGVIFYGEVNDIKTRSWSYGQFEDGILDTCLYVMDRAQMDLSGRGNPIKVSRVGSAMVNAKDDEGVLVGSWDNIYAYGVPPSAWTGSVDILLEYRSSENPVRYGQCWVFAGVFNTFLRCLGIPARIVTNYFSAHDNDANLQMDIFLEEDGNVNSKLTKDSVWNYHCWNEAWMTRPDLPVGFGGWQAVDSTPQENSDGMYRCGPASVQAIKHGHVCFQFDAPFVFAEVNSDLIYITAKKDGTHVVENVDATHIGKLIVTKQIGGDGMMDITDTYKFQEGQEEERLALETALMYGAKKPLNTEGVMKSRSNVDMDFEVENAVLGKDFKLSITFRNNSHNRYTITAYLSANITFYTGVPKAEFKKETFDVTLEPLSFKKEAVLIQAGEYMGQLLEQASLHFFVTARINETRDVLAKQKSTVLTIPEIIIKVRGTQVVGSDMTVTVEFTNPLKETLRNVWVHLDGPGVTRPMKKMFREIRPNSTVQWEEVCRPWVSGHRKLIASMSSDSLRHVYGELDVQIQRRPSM

[2] = molecular target: T2, Protein-glutamine gamma-glutamyltransferase (Homo sapiens) (UniProt P21980); assay: (§1) Irreversible inhibition of human TG2 using AL5 as substrate by colorimetric assay
T2 sequence (whole entry): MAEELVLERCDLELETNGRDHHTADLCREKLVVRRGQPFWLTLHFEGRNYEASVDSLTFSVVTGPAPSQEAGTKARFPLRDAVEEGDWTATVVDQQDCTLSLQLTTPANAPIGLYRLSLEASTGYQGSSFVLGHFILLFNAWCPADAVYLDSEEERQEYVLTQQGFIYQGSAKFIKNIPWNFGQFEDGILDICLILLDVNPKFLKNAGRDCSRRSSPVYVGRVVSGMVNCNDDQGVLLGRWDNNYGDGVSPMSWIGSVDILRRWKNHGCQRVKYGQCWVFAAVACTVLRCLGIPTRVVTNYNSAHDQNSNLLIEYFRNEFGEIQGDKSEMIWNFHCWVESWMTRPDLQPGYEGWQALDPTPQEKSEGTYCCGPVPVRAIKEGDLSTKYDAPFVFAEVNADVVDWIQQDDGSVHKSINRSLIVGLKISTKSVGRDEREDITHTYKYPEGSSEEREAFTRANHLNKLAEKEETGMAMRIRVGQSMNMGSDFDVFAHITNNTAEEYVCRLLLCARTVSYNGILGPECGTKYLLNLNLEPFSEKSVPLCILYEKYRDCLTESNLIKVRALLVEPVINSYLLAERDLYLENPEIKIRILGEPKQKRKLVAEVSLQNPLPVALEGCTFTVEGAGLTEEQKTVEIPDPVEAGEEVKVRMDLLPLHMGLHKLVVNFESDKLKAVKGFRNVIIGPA

[3] = molecular target: T3, Protein-glutamine gamma-glutamyltransferase (Homo sapiens, UniProt P21980); assay: as §1
T3 sequence (P21980 whole entry): T2 sequence (whole entry)

[4] = molecular target: T4, Protein-glutamine gamma-glutamyltransferase K (Homo sapiens) (UniProt P22735); assay: Inactivation of human TG1 using AL5 as substrate by colorimetric assay
T4 sequence (whole entry): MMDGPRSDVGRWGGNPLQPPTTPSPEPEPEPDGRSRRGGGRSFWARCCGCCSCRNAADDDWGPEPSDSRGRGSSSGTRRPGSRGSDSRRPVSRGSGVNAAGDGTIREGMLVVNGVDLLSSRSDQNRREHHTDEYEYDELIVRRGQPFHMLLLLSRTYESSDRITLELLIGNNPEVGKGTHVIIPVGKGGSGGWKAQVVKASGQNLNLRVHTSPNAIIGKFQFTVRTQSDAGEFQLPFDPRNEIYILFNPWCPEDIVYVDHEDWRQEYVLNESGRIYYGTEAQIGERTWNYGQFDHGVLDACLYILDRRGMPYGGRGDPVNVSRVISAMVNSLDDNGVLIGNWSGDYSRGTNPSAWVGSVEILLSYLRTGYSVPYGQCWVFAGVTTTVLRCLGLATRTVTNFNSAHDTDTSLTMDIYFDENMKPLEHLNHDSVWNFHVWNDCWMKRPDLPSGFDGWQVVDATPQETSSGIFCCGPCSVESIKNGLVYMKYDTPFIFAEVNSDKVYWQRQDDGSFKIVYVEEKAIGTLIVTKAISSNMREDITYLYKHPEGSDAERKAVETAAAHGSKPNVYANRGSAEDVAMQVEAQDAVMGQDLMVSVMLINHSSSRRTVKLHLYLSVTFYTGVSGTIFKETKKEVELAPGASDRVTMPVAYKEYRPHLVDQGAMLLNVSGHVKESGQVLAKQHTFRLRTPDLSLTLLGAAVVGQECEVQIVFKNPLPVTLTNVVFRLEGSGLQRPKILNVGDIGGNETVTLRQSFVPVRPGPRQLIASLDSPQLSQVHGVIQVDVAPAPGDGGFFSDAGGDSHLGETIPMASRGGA

K [1]: 5.91 ×10⁻³ /min | Kinact [2]: 2.6 min⁻¹ | Ki [3]: 33.9 µM | K [4]: 78.9 ×10⁻³ /min
SMILES: C=CC(=O)NCCCC[C@H](NC(=O)OCc1ccccc1)C(=O)NCCOCCOCCNS(=O)(=O)c1cccc2c(N(C)C)cccc12
